Results published in ChEMBL document CHEMBL1140557, “SAR studies of 1,5-diarylpyrazole-based CCK1 receptor antagonists” (Bioorg Med Chem Lett, 2007).

Experiments:
[1] = Half life in rat; format: ADME, organism-based; conditions: in vivo
[2] = Oral bioavailability in rat at 2 umol/kg; format: ADME, organism-based; conditions: in vivo

COc1ccc(-n2nc(C[C@H](C(=O)O)c3cccc(C)c3)cc2-c2ccc(Cl)c(Cl)c2)cc1
half-life [1]: 5.6 h | bioavailability [2]: 100%
